{"source": "patent US10000501B2", "about": "“Inhibitors of HIF prolyl hydroxylase” (MERCK SHARP & DOHME CORP., priority 2014, dated 2018)", "data": [{"molecular_target": "T1, human HIF-PHD2 (Homo sapiens, UniProt Q9GZT9)", "T1 construct": "FLAG-tagged full length PHD2 expressed in and purified from baculovirus-infected Sf9 cells; FLAG; made in house; host or cells: baculovirus-infected Sf9 cells", "T1 sequence (Q9GZT9 whole entry)": "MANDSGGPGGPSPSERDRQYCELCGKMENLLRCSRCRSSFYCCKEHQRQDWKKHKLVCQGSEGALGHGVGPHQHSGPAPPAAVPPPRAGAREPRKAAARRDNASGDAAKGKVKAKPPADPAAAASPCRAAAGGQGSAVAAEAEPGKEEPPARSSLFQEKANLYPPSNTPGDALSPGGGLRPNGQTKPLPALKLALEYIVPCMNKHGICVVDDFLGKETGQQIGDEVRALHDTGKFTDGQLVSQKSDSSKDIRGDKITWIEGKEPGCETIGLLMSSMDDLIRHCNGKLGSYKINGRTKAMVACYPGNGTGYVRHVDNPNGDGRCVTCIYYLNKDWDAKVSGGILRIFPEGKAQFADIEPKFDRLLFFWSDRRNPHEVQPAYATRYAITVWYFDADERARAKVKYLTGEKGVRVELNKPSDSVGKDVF", "experiment": "HIF-PHD2 inhibition assay (hydroxylation of HIF-1α peptide, time resolved fluorescence)", "type": "biochemical", "conditions": "FLAG-tagged full length PHD2; 0.2 μM 2-oxoglutarate, 0.5 μM HIF-1α peptide", "protocol": "To each well of a 384-well plate, 1 μL of test compounds in DMSO (final concentration ranging from 0.3 nM to 10 uM) were added into 20 μl of assay buffer (50 mM Tris pH 7.4/0.01% Tween-20/0.1 mg/ml bovine serum albumin/10 μM ferrous sulfate/1 mM sodium ascorbate/20 μg/ml catalase) containing 0.15 μg/ml FLAG-tagged full length PHD2 expressed in and purified from baculovirus-infected Sf9 cells. […] Purif.", "units": {"IC50": "nM"}, "values": [{"smiles": "O=C(O)CNC(=O)c1c(O)c2c(n(Cc3cncs3)c1=O)CCOC2", "note": "[Example 31, 2-(4-Hydroxy-2-oxo-1-(thiazol-5-ylmethyl)-2,5,7,8-tetrahydro-1H-pyrano[4,3-b]pyridine-3-carboxamido)acetic acid]", "IC50": 32.8}, {"smiles": "O=C(O)CNC(=O)c1c(O)c2c(n(Cc3ccn(-c4ccccc4)n3)c1=O)CCOC2", "note": "[Example 32, 2-(4-Hydroxy-2-oxo-1-((1-phenyl-1H-pyrazol-3-yl)methyl)-2,5,7,8-tetrahydro-1H-pyrano[4,3-b]pyridine-3-carboxamido)acetic acid]", "IC50": 12.1}, {"smiles": "CC(C)(O)c1ccc(Cn2c3c(c(O)c(C(=O)NCC(=O)O)c2=O)COCC3)cc1", "note": "[Example 33, 2-(4-Hydroxy-1-(4-(2-hydroxypropan-2-yl)benzyl)-2-oxo-2,5,7,8-tetrahydro-1H-pyrano[4,3-b]pyridine-3-carboxamido)acetic acid]", "IC50": 49.9}, {"smiles": "NC(=O)c1ccc(Cn2c3c(c(O)c(C(=O)NCC(=O)O)c2=O)COCC3)cc1", "note": "[Example 34, 2-(1-(4-Carbamoylbenzyl)-4-hydroxy-2-oxo-2,5,7,8-tetrahydro-1H-pyrano[4,3-b]pyridine-3-carboxamido)acetic acid]", "IC50": 29.3}, {"smiles": "O=C(O)CNC(=O)c1c(O)c2c(n(Cc3csc(C(F)(F)F)n3)c1=O)CCOC2", "note": "[Example 35, 2-(4-Hydroxy-2-oxo-1-((2-(trifluoromethyl)thiazol-4-yl)methyl)-2,5,7,8-tetrahydro-1H-pyrano[4,3-b]pyridine-3-carboxamido)acetic acid]", "IC50": 15.1}, {"smiles": "O=C(O)CNC(=O)c1c(O)c2c(n(-c3ccc(OC(F)(F)F)cc3)c1=O)CCOC2", "note": "[Example 36, 2-(4-Hydroxy-2-oxo-1-(4-(trifluoromethoxy)phenyl)-2,5,7,8-tetrahydro-1H-pyrano[4,3-b]pyridine-3-carboxamido)acetic acid]", "IC50": 98.8}, {"smiles": "O=C(O)CNC(=O)c1c(O)c2c(n(Cc3ccc(Cl)cc3)c1=O)COCC2", "note": "[Example 37, 2-(1-(4-Chlorobenzyl)-4-hydroxy-2-oxo-2,5,6,8-tetrahydro-1H-pyrano[3,4-b]pyridine-3-carboxamido)acetic acid]", "IC50": 50.2}, {"smiles": "O=C(O)CNC(=O)c1c(O)c2c(n(Cc3ccc(F)cc3F)c1=O)COCC2", "note": "[Example 38, 2-(1-(2,4-difluorobenzyl)-4-hydroxy-2-oxo-2,5,6,8-tetrahydro-1H-pyrano[3,4-b]pyridine-3-carboxamido)acetic acid]", "IC50": 24.1}, {"smiles": "CC(C)c1ccc(Cn2c3c(c(O)c(C(=O)NCC(=O)O)c2=O)CCOC3)cc1", "note": "[Example 39, 2-(4-hydroxy-1-(4-isopropylbenzyl)-2-oxo-2,5,6,8-tetrahydro-1H-pyrano[3,4-b]pyridine-3-carboxamido)acetic acid]", "IC50": 42.2}, {"smiles": "N#Cc1ccc(Cn2c3c(c(O)c(C(=O)NCC(=O)O)c2=O)CCOC3)cc1", "note": "[Example 40, 2-(1-(4-cyanobenzyl)-4-hydroxy-2-oxo-2,5,6,8-tetrahydro-1H-pyrano[3,4-b]pyridine-3-carboxamido)acetic acid]", "IC50": 21.8}, {"smiles": "CS(=O)(=O)c1ccc(Cn2c3c(c(O)c(C(=O)NCC(=O)O)c2=O)CCOC3)cc1", "note": "[Example 41, 2-(4-hydroxy-1-(4-(methylsulfonyl)benzyl)-2-oxo-2,5,6,8-tetrahydro-1H-pyrano[3,4-b]pyridine-3-carboxamido)acetic acid]", "IC50": 28.7}, {"smiles": "O=C(O)CNC(=O)c1c(O)c2c(n(Cc3ccc(C(F)(F)F)nc3)c1=O)COCC2", "note": "[Example 42, 2-(4-hydroxy-2-oxo-1-((6-(trifluoromethyl)pyridin-3-yl)methyl)-2,5,6,8-tetrahydro-1H-pyrano[3,4-b]pyridine-3-carboxamido)acetic acid]", "IC50": 19.9}, {"smiles": "O=C(O)CNC(=O)c1c(O)c2c(n(Cc3cc(F)c(F)cc3F)c1=O)COCC2", "note": "[Example 43, 2-(4-hydroxy-2-oxo-1-(2,4,5-trifluorobenzyl)-2,5,6,8-tetrahydro-1H-pyrano[3,4-b]pyridine-3-carboxamido)acetic acid]", "IC50": 26.5}, {"smiles": "N#Cc1ccc(Cn2c3c(c(O)c(C(=O)NCC(=O)O)c2=O)CCOC3)c(F)c1", "note": "[Example 44, 2-(1-(4-cyano-2-fluorobenzyl)-4-hydroxy-2-oxo-2,5,6,8-tetrahydro-1H-pyrano[3,4-b]pyridine-3-carboxamido)acetic acid]", "IC50": 14.4}, {"smiles": "Cc1cc(Cn2c3c(c(O)c(C(=O)NCC(=O)O)c2=O)CCOC3)ccc1C#N", "note": "[Example 45, 2-(1-(4-cyano-3-methylbenzyl)-4-hydroxy-2-oxo-2,5,6,8-tetrahydro-1H-pyrano[3,4-b]pyridine-3-carboxamido)acetic acid]", "IC50": 90.1}, {"smiles": "O=C(O)CNC(=O)c1c(O)c2c(n(Cc3ncc(C(F)(F)F)cn3)c1=O)COCC2", "note": "[Example 46, 2-(4-hydroxy-2-oxo-1-((5-(trifluoromethyl)pyrimidin-2-yl)methyl)-2,5,6,8-tetrahydro-1H-pyrano[3,4-b]pyridine-3-carboxamido)acetic acid]", "IC50": 90.1}, {"smiles": "O=C(O)CNC(=O)c1c(O)c2c(n(Cc3ccc(Cl)cc3F)c1=O)COCC2", "note": "[Example 47, 2-(1-(4-chloro-2-fluorobenzyl)-4-hydroxy-2-oxo-2,5,6,8-tetrahydro-1H-pyrano[3,4-b]pyridine-3-carboxamido)acetic acid]", "IC50": 19.3}, {"smiles": "O=C(O)CNC(=O)c1c(O)c2c(n(Cc3nc4ccccc4s3)c1=O)COCC2", "note": "[Example 48, 2-(1-(benzo[d]thiazol-2-ylmethyl)-4-hydroxy-2-oxo-2,5,6,8-tetrahydro-1H-pyrano[3,4-b]pyridine-3-carboxamido)acetic acid]", "IC50": 8.9}, {"smiles": "O=C(O)CNC(=O)c1c(O)c2c(n(Cc3ccc(OC(F)F)cc3)c1=O)COCC2", "note": "[Example 49, 2-(1-(4-(difluoromethoxy)benzyl)-4-hydroxy-2-oxo-2,5,6,8-tetrahydro-1H-pyrano[3,4-b]pyridine-3-carboxamido)acetic acid]", "IC50": 28.6}, {"smiles": "Cn1ccc(Cn2c3c(c(O)c(C(=O)NCC(=O)O)c2=O)CCOC3)n1", "note": "[Example 50, 2-(4-hydroxy-1-((1-methyl-1H-pyrazol-3-yl)methyl)-2-oxo-2,5,6,8-tetrahydro-1H-pyrano[3,4-b]pyridine-3-carboxamido)acetic acid]", "IC50": 55.1}, {"smiles": "COc1ccc(Cn2c3c(c(O)c(C(=O)NCC(=O)O)c2=O)CCOC3)cc1", "note": "[Example 51, 2-(4-hydroxy-1-(4-methoxybenzyl)-2-oxo-2,5,6,8-tetrahydro-1H-pyrano[3,4-b]pyridine-3-carboxamido)acetic acid]", "IC50": 30.2}, {"smiles": "O=C(O)CNC(=O)c1c(O)c2c(n(Cc3ccc(OC(F)(F)F)cc3)c1=O)COCC2", "note": "[Example 52, 2-(4-hydroxy-2-oxo-1-(4-(trifluoromethoxy)benzyl)-2,5,6,8-tetrahydro-1H-pyrano[3,4-b]pyridine-3-carboxamido)acetic acid]", "IC50": 24.1}, {"smiles": "O=C(O)CNC(=O)c1c(O)c2c(n(Cc3ccc(F)cc3)c1=O)COCC2", "note": "[Example 53, 2-(1-(4-fluorobenzyl)-4-hydroxy-2-oxo-2,5,6,8-tetrahydro-1H-pyrano[3,4-b]pyridine-3-carboxamido)acetic acid]", "IC50": 29.3}, {"smiles": "O=C(O)CNC(=O)c1c(O)c2c(n(Cc3ccc(F)c(F)c3)c1=O)COCC2", "note": "[Example 54, 2-(1-(3,4-difluorobenzyl)-4-hydroxy-2-oxo-2,5,6,8-tetrahydro-1H-pyrano[3,4-b]pyridine-3-carboxamido)acetic acid]", "IC50": 30.8}]}]}
